Test results published in ChEMBL document CHEMBL1136014 (J Med Chem, 2002).

Tests used:
CHO-K1 [1] = test: Percentage agonism of compound towards thyroid response element (TRAF alpha) in CHO-K1 cells at 10 uM; Partial agonist; type: functional, Cricetulus griseus
CHO-K1 [2] = test: Antagonism of compound towards thyroid response element (TRAF alpha) in CHO-K1 cells; details: Cricetulus griseus
[3] = molecular target: T1, Thyroid hormone receptor beta (Homo sapiens, UniProt P10828)
T1 sequence (P10828 whole entry): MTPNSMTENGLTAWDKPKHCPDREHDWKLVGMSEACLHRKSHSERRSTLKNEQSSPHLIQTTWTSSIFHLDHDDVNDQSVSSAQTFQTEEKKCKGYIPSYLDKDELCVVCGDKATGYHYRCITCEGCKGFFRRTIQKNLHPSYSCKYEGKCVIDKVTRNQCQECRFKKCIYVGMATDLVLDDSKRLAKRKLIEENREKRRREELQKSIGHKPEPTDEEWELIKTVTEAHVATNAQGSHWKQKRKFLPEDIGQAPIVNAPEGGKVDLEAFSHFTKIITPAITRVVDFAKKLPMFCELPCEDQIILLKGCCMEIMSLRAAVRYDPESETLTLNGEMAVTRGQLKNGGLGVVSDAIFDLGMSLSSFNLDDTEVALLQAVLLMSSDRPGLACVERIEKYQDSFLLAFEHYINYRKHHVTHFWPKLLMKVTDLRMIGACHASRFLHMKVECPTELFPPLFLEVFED
Description: Concentration required to inhibit 50% of binding of [125I]T3 to human Thyroid hormone receptor beta 1 in CHO-K1 cells

[4] = molecular target: T2, Thyroid hormone receptor alpha (Homo sapiens, UniProt P10827)
T2 sequence (P10827 whole entry): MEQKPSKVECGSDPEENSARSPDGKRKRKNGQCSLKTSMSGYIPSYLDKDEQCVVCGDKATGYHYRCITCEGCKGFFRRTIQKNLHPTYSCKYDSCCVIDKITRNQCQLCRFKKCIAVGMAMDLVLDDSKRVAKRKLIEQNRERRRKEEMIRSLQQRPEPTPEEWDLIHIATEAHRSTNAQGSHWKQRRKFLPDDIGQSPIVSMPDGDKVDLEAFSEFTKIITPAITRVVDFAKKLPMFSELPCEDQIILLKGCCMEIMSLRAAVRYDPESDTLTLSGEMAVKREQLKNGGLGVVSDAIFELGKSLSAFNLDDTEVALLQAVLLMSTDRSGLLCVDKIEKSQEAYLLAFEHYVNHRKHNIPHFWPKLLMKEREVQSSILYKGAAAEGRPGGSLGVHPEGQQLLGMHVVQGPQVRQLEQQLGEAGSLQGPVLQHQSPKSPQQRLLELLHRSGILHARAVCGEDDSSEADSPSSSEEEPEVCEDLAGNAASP
Description: Concentration required to inhibit 50% of binding of [125I]-T3 to human Thyroid hormone receptor alpha-1 in CHO-K1 cells

CHO-K1 [5] = test: Agonism of compound towards thyroid response element (TRAF alpha) in CHO-K1 cells; type: functional, cell-based; details: Cricetulus griseus
CHO-K1 [6] = test: Agonism of compound towards thyroid response element (TRAF beta) in CHO-K1 cells; type: functional, cell-based; details: Cricetulus griseus
CHO-K1 [7] = test: Antagonism of compound towards thyroid response element (TRAF beta) in CHO-K1 cells; details: Cricetulus griseus
Rattus norvegicus [8] = test: Serum concentrations of T3 in rats after 2 weeks of daily oral administration of compound at 100 mg/kg (Control = 0.74+/-0.15); type: functional
Rattus norvegicus [9] = test: Serum concentrations of T4 in rats after 2 weeks of daily oral administration of compound at 100 mg/kg (Control = 33.1+/-5.00); type: functional
Rattus norvegicus [10] = test: Effects on liver was determined from serum aspartate aminotransferase levels in male (5) rats after 2 weeks of daily oral administration of compound at 300 mg/kg (Control = 111+/-21); type: functional
Rattus norvegicus [11] = test: Serum concentrations of T3 in rats after 2 weeks of daily oral administration of compound at 300 mg/kg (Control = 0.74+/-0.15); type: functional
Rattus norvegicus [12] = test: Serum concentrations of T4 in rats after 2 weeks of daily oral administration of compound at 30 mg/kg (Control = 33.1+/-5.00); type: functional
Cavia porcellus [13] = test: Action potential duration at 50% levels of repolarization in guinea pig papillary muscles after twenty days of daily i.p. injection of 40 mg/kg (Control = 168); type: functional, Muscle tissue; details: route intraperitoneal
Rattus norvegicus [14] = test: Serum concentrations of T3 in rats after 2 weeks of daily oral administration of compound at 30 mg/kg (Control = 0.74+/-0.15); type: functional
Rattus norvegicus [15] = test: Effects on liver was determined from serum cholesterol levels in female (5) rats after 2 weeks of daily oral administration of compound at 30 mg/kg (Control = 0.73+/-0.05); type: functional
Rattus norvegicus [16] = test: Effects on liver was determined from serum alanine aminotransferase levels in female (5) rats after 2 weeks of daily oral administration of compound at 100 mg/kg (Control = 23+/-5); type: functional
Rattus norvegicus [17] = test: Effects on liver was determined from serum aspartate aminotransferase levels in female (5) rats after 2 weeks of daily oral administration of compound at 300 mg/kg (Control = 106+/-18); type: functional
Rattus norvegicus [18] = test: Serum concentrations of T4 in rats after 2 weeks of daily oral administration of compound at 300 mg/kg (Control = 33.1+/-5.00); type: functional
Cavia porcellus [19] = test: Action potential duration at 90% levels of repolarization in guinea pig papillary muscles after twenty days of daily i.p. injection of 40 mg/kg Control = 186); type: functional, Muscle tissue; details: route intraperitoneal
Cavia porcellus [20] = test: Vmax of the action potential amplitude in guinea pig papillary muscles after twenty days of daily i.p. injection of 40 mg/kg Control = 205); type: functional; design: dose 40 mg/kg; details: Muscle tissue
Rattus norvegicus [21] = test: Effects on liver was determined from serum alanine aminotransferase levels in female (5) rats after 2 weeks of daily oral administration of compound at 300 mg/kg (Control = 23+/-5); type: functional
Rattus norvegicus [22] = test: Effects on liver was determined from serum alanine aminotransferase levels in male (5) rats after 2 weeks of daily oral administration of compound at 300 mg/kg (Control = 30+/-3); type: functional
Rattus norvegicus [23] = test: Effects on liver was determined from serum cholesterol levels in female (5) rats after 2 weeks of daily oral administration of compound at 300 mg/kg (Control = 0.73+/-0.05); type: functional
Rattus norvegicus [24] = test: Effects on liver was determined from serum aspartate aminotransferase levels in female (5) rats after 2 weeks of daily oral administration of compound at 100 mg/kg (Control = 106+/-18); type: functional
Rattus norvegicus [25] = test: Serum concentrations of Thyrotropin in rats after 2 weeks of daily oral administration of compound at 300 mg/kg (Control = 11.00+/-1.97); type: functional
Rattus norvegicus [26] = test: Effects on liver was determined from serum alanine aminotransferase levels in male (5) rats after 2 weeks of daily oral administration of compound at 100 mg/kg (Control = 30+/-3); type: functional
Rattus norvegicus [27] = test: Effects on liver was determined from serum cholesterol levels in male (5) rats after 2 weeks of daily oral administration of compound at 300 mg/kg (Control = 0.67+/-0.13); type: functional
Rattus norvegicus [28] = test: Effects on liver was determined from serum aspartate aminotransferase levels in male (5) rats after 2 weeks of daily oral administration of compound at 30 mg/kg (Control = 111+/-21); type: functional
Rattus norvegicus [29] = test: Effects on liver was determined from serum cholesterol levels in male (5) rats after 2 weeks of daily oral administration of compound at 30 mg/kg (Control = 0.67+/-0.13); type: functional
Rattus norvegicus [30] = test: Serum concentrations of Thyrotropin in rats after 2 weeks of daily oral administration of compound at 100 mg/kg (Control = 11.00+/-1.97); type: functional
Cavia porcellus [31] = test: Ratio of action potential duration (APD90/APD50) in guinea pig papillary muscles after twenty days of daily i.p. injection of 40 mg/kg Control = 1.10); type: functional, Papillary muscle; details: route intraperitoneal
Rattus norvegicus [32] = test: Effects on liver was determined from serum aspartate aminotransferase levels in male (5) rats after 2 weeks of daily oral administration of compound at 100 mg/kg (Control = 111+/-21); type: functional
Rattus norvegicus [33] = test: Effects on liver was determined from serum alanine aminotransferase levels in male (5) rats after 2 weeks of daily oral administration of compound at 30 mg/kg (Control = 30+/-3); type: functional
Rattus norvegicus [34] = test: Effects on liver was determined from serum cholesterol levels in female (5) rats after 2 weeks of daily oral administration of compound at 100 mg/kg (Control = 0.73+/-0.05); type: functional
Rattus norvegicus [35] = test: Effects on liver was determined from serum cholesterol levels in male (5) rats after 2 weeks of daily oral administration of compound at 100 mg/kg (Control = 0.67+/-0.13); type: functional
Rattus norvegicus [36] = test: Serum concentrations of Thyrotropin in rats after 2 weeks of daily oral administration of compound at 30 mg/kg (Control = 11.00+/-1.97); type: functional
Rattus norvegicus [37] = test: Effects on liver was determined from serum aspartate aminotransferase levels in female (5) rats after 2 weeks of daily oral administration of compound at 30 mg/kg (Control = 106+/-18); type: functional
Cavia porcellus [38] = test: Action potential amplitude of compound on guinea pig papillary muscles after twenty days of daily i.p. injection of 40 mg/kg Control = 115); type: functional, Muscle tissue; details: route intraperitoneal
Rattus norvegicus [39] = test: Effects on liver was determined from serum alanine aminotransferase levels in female (5) rats after 2 weeks of daily oral administration of compound at 30 mg/kg (Control = 23+/-5); type: functional
Cavia porcellus [40] = test: Effective refractory period in guinea pig papillary muscles after twenty days of daily i.p. injection of 40 mg/kg Control = 201); type: functional, Muscle tissue; details: route intraperitoneal
[41] = molecular target: Sodium channel alpha subunits; brain (Types I, II, III) (Rattus norvegicus) (UniProt P04775+P04774+P08104); details: Forebrain, Membrane, 2 uM
[42] = molecular target: L-type Ca2+ channel, dihydropyridine site (Rattus norvegicus, UniProt P22002+P27732+Q02485); test: Percentage inhibition of [3H]nitrendipine binding to L-type [Ca2+] channel dihydropyridine site in rat cortical membranes at 2 uM (70-80 %); type: cell membranes, Membrane; details: probe [3H]nitrendipine

Sodium channel alpha subunits; brain (Types I, II, III) (Rattus norvegicus), sequence (P04775 whole entry, looked up, other chains not shown): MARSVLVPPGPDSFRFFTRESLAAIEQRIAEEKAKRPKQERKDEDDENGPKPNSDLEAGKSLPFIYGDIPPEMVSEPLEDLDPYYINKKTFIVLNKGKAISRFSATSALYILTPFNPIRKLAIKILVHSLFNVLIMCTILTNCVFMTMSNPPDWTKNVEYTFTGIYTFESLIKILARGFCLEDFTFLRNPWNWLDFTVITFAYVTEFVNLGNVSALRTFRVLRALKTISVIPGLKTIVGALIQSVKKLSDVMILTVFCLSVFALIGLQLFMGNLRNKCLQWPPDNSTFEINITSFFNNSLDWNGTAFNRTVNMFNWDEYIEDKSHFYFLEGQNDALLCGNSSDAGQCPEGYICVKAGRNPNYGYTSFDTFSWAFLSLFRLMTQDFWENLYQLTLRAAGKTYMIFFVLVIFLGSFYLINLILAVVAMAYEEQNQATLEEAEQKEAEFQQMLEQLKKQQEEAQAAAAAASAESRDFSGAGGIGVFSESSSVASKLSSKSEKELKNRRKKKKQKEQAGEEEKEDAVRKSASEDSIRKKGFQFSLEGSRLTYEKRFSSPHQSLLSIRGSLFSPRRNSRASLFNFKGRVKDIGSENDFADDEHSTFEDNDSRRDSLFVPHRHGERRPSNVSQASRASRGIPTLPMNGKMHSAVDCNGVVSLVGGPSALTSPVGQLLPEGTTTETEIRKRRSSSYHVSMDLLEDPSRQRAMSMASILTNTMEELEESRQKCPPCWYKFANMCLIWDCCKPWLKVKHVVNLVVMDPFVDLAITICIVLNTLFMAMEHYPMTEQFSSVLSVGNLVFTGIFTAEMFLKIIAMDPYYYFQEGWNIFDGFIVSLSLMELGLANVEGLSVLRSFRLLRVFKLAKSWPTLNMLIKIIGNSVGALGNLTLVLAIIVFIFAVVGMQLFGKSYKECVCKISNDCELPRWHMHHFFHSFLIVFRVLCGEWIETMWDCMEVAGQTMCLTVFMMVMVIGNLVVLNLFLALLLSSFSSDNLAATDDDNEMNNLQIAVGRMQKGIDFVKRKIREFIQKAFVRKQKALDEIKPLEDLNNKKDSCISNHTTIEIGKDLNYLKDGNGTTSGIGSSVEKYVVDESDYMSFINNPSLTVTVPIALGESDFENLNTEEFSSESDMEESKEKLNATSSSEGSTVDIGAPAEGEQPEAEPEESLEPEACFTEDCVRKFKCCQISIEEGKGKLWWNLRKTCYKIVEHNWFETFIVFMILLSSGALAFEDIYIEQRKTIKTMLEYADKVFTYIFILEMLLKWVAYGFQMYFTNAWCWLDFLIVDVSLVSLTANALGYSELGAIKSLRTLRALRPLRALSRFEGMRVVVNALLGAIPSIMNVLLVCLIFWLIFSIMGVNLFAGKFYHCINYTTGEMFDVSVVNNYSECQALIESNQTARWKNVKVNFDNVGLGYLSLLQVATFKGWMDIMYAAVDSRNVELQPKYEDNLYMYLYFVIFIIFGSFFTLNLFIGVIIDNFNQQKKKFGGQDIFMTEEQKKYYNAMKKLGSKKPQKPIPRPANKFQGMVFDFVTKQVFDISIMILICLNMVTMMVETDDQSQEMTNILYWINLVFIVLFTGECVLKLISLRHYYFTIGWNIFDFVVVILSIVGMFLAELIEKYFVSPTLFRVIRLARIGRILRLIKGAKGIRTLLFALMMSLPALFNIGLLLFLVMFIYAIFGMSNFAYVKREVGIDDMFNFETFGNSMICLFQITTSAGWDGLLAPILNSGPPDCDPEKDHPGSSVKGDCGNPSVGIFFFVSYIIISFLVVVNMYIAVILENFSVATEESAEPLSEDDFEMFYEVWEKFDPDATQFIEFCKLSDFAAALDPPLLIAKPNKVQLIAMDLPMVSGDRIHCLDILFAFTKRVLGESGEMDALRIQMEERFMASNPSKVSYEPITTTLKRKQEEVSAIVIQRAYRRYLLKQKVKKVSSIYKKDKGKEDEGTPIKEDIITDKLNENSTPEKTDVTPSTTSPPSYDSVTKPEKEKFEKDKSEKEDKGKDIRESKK
Sodium channel alpha subunits; brain (Types I, II, III) (Rattus norvegicus), sequence (P08104 whole entry, looked up, other chains not shown): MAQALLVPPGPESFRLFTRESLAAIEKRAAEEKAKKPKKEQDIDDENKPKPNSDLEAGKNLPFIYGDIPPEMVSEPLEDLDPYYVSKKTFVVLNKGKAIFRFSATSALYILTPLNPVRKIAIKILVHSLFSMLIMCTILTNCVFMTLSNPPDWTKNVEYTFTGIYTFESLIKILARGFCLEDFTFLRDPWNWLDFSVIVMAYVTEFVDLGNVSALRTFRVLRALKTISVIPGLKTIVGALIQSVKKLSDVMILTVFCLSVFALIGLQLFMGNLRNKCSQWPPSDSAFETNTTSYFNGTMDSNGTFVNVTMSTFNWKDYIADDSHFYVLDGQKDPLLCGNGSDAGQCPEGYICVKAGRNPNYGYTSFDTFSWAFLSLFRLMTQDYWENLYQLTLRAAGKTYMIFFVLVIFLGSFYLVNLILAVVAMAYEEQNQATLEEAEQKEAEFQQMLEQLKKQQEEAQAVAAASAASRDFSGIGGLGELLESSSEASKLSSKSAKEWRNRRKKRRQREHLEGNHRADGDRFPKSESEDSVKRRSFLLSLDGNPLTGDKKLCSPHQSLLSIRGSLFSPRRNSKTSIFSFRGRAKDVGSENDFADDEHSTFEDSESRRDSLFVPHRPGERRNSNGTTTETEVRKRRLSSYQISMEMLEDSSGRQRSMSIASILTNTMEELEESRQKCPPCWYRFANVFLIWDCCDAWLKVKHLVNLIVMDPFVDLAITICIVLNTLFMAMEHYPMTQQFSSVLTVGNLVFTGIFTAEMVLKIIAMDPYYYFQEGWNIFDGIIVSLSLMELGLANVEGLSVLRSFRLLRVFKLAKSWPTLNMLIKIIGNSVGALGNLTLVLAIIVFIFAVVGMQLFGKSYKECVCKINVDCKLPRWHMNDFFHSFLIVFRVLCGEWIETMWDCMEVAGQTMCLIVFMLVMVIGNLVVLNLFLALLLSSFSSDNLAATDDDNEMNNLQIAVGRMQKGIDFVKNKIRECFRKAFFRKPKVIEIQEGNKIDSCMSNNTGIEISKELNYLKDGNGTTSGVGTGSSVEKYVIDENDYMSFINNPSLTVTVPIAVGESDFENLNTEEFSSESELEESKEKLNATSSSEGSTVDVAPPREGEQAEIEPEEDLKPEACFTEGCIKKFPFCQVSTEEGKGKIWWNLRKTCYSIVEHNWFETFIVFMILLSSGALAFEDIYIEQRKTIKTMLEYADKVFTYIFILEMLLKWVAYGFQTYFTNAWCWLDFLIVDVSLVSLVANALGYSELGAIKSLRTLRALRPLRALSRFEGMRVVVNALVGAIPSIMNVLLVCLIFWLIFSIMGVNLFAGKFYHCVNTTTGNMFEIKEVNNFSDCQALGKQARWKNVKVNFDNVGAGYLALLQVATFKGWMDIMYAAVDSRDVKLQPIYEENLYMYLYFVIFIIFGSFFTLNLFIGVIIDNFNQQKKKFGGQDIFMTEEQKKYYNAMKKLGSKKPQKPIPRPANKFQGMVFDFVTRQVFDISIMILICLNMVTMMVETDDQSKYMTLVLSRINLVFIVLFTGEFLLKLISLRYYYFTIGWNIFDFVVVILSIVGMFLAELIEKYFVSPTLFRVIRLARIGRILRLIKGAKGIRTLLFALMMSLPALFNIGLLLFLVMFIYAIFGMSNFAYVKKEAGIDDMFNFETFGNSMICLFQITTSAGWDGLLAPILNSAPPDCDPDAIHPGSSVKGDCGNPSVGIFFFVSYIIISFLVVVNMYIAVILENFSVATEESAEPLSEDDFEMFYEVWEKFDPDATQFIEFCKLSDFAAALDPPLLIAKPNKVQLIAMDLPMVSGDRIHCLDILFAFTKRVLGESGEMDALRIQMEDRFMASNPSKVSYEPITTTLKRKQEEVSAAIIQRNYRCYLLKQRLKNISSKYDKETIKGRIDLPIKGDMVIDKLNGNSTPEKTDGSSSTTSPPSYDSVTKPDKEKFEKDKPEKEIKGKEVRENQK

Row | Compound | IC50 (CHO-K1 [2]) [µM] | IC50 [3] [nM] | IC50 [4] [nM] | EC50 (CHO-K1 [5]) [µM] | EC50 (CHO-K1 [6]) [µM] | IC50 (CHO-K1 [7]) [µM] | Thyroid status (Rattus norvegicus [8]) [nM l-1] | Thyroid status (Rattus norvegicus [9]) [nM l-1] | ASAT levels (Rattus norvegicus [10]) [IU/l] | Thyroid status (Rattus norvegicus [11]) [nM l-1] | Thyroid status (Rattus norvegicus [12]) [nM l-1] | Thyroid status (Rattus norvegicus [14]) [nM l-1] | Cholestrol levels (Rattus norvegicus [15]) [g/L] | ALAT levels (Rattus norvegicus [16]) [IU/l] | ASAT levels (Rattus norvegicus [17]) [IU/l] | Thyroid status (Rattus norvegicus [18]) [nM l-1] | ALAT levels (Rattus norvegicus [21]) [IU/l] | ALAT levels (Rattus norvegicus [22]) [IU/l] | Cholestrol levels (Rattus norvegicus [23]) [g/L] | ASAT levels (Rattus norvegicus [24]) [IU/l] | also measured
1 | Cc1oc2ccccc2c1C(=O)c1cc(I)c(OCC(=O)O)c(I)c1 | > 10 | 480 | 820 | 0.45 | 1.7 | > 10 |  |  |  |  |  |  |  |  |  |  |  |  |  |  | Effect (CHO-K1 [1]): 56%
2 | Cc1oc2ccccc2c1Cc1cc(I)c(OCC(=O)O)c(I)c1 | 2.2 | 5100 | 4500 | > 10 | > 10 | 4.1 | 0.51 | 37.1 | 102 | 0.52 | 35.1 | 0.52 | 0.68 | 40 | 115 | 46.6 | 54 | 67 | 0.93 | 114 | APD50 (Cavia porcellus [13]): 182 ms; APD90 (Cavia porcellus [19]): 219 ms; Vmax (Cavia porcellus [20]): 192 V s-1; Thyroid status (Rattus norvegicus [25]): 16.6 ng/mL; ALAT levels (Rattus norvegicus [26]): 43 IU/l; Cholestrol levels (Rattus norvegicus [27]): 0.91 g/L; ASAT levels (Rattus norvegicus [28]): 104 IU/l; Cholestrol levels (Rattus norvegicus [29]): 0.63 g/L; Thyroid status (Rattus norvegicus [30]): 16.6 ng/mL; Ratio (Cavia porcellus [31]): 1.22; ASAT levels (Rattus norvegicus [32]): 111 IU/l; ALAT levels (Rattus norvegicus [33]): 30 IU/l; Cholestrol levels (Rattus norvegicus [34]): 0.69 g/L; Cholestrol levels (Rattus norvegicus [35]): 0.78 g/L; Thyroid status (Rattus norvegicus [36]): 14.2 ng/mL; ASAT levels (Rattus norvegicus [37]): 101 IU/l; APA (Cavia porcellus [38]): 116 mV; ALAT levels (Rattus norvegicus [39]): 21 IU/l; ERP (Cavia porcellus [40]): 223 ms
3 | CCCCc1oc2ccccc2c1C(=O)c1cc(I)c(OCC(=O)O)c(I)c1 | > 10 |  | 1400 | > 10 | > 10 | > 10 |  |  |  |  |  |  |  |  |  |  |  |  |  |  | 
4 | CCCCc1oc2ccccc2c1C(=O)c1cc(I)c(OCCN(CC)CC)c(I)c1 [AMIODARONE] |  |  |  |  |  |  | 0.66 | 43.2 | 550 | 0.28 | 43.9 | 0.66 | 0.89 | 62 | 2052 | 22.3 | 284 | 103 | 1.12 | 133 | Thyroid status (Rattus norvegicus [25]): 11.2 ng/mL; ALAT levels (Rattus norvegicus [26]): 62 IU/l; Cholestrol levels (Rattus norvegicus [27]): 1.39 g/L; ASAT levels (Rattus norvegicus [28]): 110 IU/l; Cholestrol levels (Rattus norvegicus [29]): 0.77 g/L; Thyroid status (Rattus norvegicus [30]): 16.1 ng/mL; inhibition [41]: 70%; ASAT levels (Rattus norvegicus [32]): 131 IU/l; inhibition at 2 µM [42]: 80%; ALAT levels (Rattus norvegicus [33]): 35 IU/l; Cholestrol levels (Rattus norvegicus [34]): 1.18 g/L; Cholestrol levels (Rattus norvegicus [35]): 1.26 g/L; Thyroid status (Rattus norvegicus [36]): 13.9 ng/mL; ASAT levels (Rattus norvegicus [37]): 109 IU/l; ALAT levels (Rattus norvegicus [39]): 23 IU/l
